Assay results reported in US11000033B2, “Ketone or oxime compound, and herbicide” (NISSAN CHEMICAL CORPORATION, priority 2014, dated 2021).

Key:
Assay type in all cases: in vivo
[1] = system: Echinochloa crus-galli var. crus-galli; assay: Test Example 5: herbicidal effect by foliage application, plastic box (symbol H); details: 320 g/ha, 3 weeks after application
How it was run: (§1)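 After sowing into sterilized diluvial soil and growing two weeks under glass at 25° C. to 30° C., seedlings receive a uniform foliar spray of diluted emulsion. Damage is judged visually three weeks on.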

[2] = system: Apera spica-venti; assay: Test Example 5: herbicidal effect by foliage application, plastic box (symbol L); details: 320 g/ha, 3 weeks after application
How it was run: as §1

[3] = system: Avena fatua; assay: Test Example 5: herbicidal effect by foliage application, plastic box (symbol I); details: 320 g/ha, 3 weeks after application
How it was run: as §1

[4] = system: Amaranthus retroflexus; assay: Test Example 5: herbicidal effect by foliage application, plastic box (symbol N); details: 320 g/ha, 3 weeks after application
How it was run: as §1

[5] = system: Scirpus juncoides; assay: Test Example 2: herbicidal activity, application during weed generation in submerged conditions (symbol B); details: Table 23; application herbicide amount 320 g/ha; grade 0-5 by criteria of Test Example 1
How it was run: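 Scoring of herbicidal effect took place 3 weeks after treatment, using the criteria of the earlier test. Treatment was water-surface application of diluted emulsifiable compound at a set dose. Plants were at one- to two-leaf stage in submerged alluvial soil (4 cm depth), greenhouse 25-30° C.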

[6] = system: Echinochloa crus-galli var. crus-galli; assay: Test Example 3: herbicidal effect by foliage application, Wagner pot (symbol H); details: application herbicide amount 320 g/ha
How it was run: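 Foliar spray of a water-diluted emulsion at a predetermined herbicide amount, applied to 14-day-old plants. Seedlings were raised in flooded alluvial soil (0.1–0.5 cm water) at 25–30 °C in a greenhouse. Injury was rated after 3 weeks against fixed criteria.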

[7] = system: Lolium multiflorum Lam.; assay: Test Example 5: herbicidal effect by foliage application, plastic box (symbol K); details: 320 g/ha, 3 weeks after application
How it was run: as §1

[8] = system: soybean; assay: Test Example 4: effect on crop by soil treatment (symbol d)
How it was run: (§2)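 Seeds were sown in spots on sterilized diluvial soil in a plastic box and covered with about 1.5 cm of soil. Plants were then grown in a greenhouse at 25° C. to 30° C.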

[9] = system: corn; assay: Test Example 4: effect on crop by soil treatment (symbol c)
How it was run: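 Steps: fill box with sterilized diluvial soil; sow seed spot-like; cover with ~1.5 cm soil; grow in greenhouse (25° C. to 30° C.).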

[10] = system: Galium spurium; assay: Test Example 4: herbicidal effect by soil treatment (symbol Q)
How it was run: (§3)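 Seeds were sown in sterilized diluvial soil, covered with about 1.5 cm of soil, and the soil surface was sprayed with a water-diluted emulsion of the compound at a predetermined rate. Plants grew in a greenhouse at 25° C. to 30° C.; effects were scored visually 3 weeks after application.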

[11] = system: beet; assay: Test Example 5: effect on crop by foliage application, plastic box (symbol f); details: 320 g/ha, 3 weeks after application
How it was run: (§4)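 Greenhouse test at 25° C. to 30° C. Seeds of crops and weeds were spot-sown in boxes of sterilized diluvial soil under roughly 1.5 cm soil cover, then grown for foliage treatment.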

[12] = system: wheat; assay: Test Example 4: effect on crop by soil treatment (symbol e)
How it was run: as §2

[13] = system: Apera spica-venti; assay: Test Example 4: herbicidal effect by soil treatment (symbol L)
How it was run: as §3

[14] = system: Stellaria media; assay: Test Example 4: herbicidal effect by soil treatment (symbol P)
How it was run: as §3

[15] = system: rapeseed; assay: Test Example 5: effect on crop by foliage application, plastic box (symbol g); details: 320 g/ha, 3 weeks after application
How it was run: as §4

[16] = application herbicide amount 320 g/ha

SMILES	H: Echinochloa crus-galli var. crus-galli, herbicidal effect grade [1]	L: Apera spica-venti, herbicidal effect grade [2]	I: Avena fatua, herbicidal effect grade [3]	N: Amaranthus retroflexus, herbicidal effect grade [4]	Herbicidal effect grade, B: Scirpus juncoides [5]	herbicidal effect on H (Echinochloa crus-galli var. crus-galli), grade 0-5 [6]	K: Lolium multiflorum Lam., herbicidal effect grade [7]	d: soybean, effect on crop grade [8, 16]	c: corn, effect on crop grade [9, 16]	Q: Galium spurium, herbicidal effect grade [10, 16]	f: beet, effect on crop grade [11]	e: wheat, effect on crop grade [12, 16]	L: Apera spica-venti, herbicidal effect grade [13, 16]	P: Stellaria media, herbicidal effect grade [14, 16]	g: rapeseed, effect on crop grade [15]	further results
CCC(CCC1CC(O)=C(c2c(C)cc(C)cc2C)C1=O)=NOC (mixture of isomers) [4-001]	2 (Herbicidal ratio of 20% or higher and lower than 40%)	2 (Herbicidal ratio of 20% or higher and lower than 40%)	4 (Herbicidal ratio of 70% or higher and lower than 90%)	0 (Herbicidal ratio of 5% or lower (almost no effect))	0 (Herbicidal ratio of 5% or lower (almost no effect))	2 (Herbicidal ratio of 20% or higher and lower than 40%)	5 (Herbicidal ratio of 90% or more (almost completely withered))	0 (Herbicidal ratio of 5% or lower (almost no effect))	0 (Herbicidal ratio of 5% or lower (almost no effect))	0 (Herbicidal ratio of 5% or lower (almost no effect))	0 (Herbicidal ratio of 5% or lower (almost no effect))	0 (Herbicidal ratio of 5% or lower (almost no effect))	5 (Herbicidal ratio of 90% or more (almost completely withered))			
CCc1cc(-n2cc(Cl)cn2)cc(C)c1C1=C(O)CC(CC(C)=NOC)C1=O (mixture of isomers) [6-005]	5 (Herbicidal ratio of 90% or more (almost completely withered))	5 (Herbicidal ratio of 90% or more (almost completely withered))	5 (Herbicidal ratio of 90% or more (almost completely withered))	4 (Herbicidal ratio of 70% or higher and lower than 90%)	2 (Herbicidal ratio of 20% or higher and lower than 40%)	5 (Herbicidal ratio of 90% or more (almost completely withered))	5 (Herbicidal ratio of 90% or more (almost completely withered))	1 (Herbicidal ratio of 5% or higher and lower than 20%)	3 (Herbicidal ratio of 40% or higher and lower than 70%)	0 (Herbicidal ratio of 5% or lower (almost no effect))	0 (Herbicidal ratio of 5% or lower (almost no effect))	4 (Herbicidal ratio of 70% or higher and lower than 90%)	5 (Herbicidal ratio of 90% or more (almost completely withered))	0 (Herbicidal ratio of 5% or lower (almost no effect))	0 (Herbicidal ratio of 5% or lower (almost no effect))	
CON=C(C)CC1CC(OCC(=O)OC)=C(c2c(C)cc(C)cc2C)C1=O (stereo not drawn) [1-012]	0 (Herbicidal ratio of 5% or lower (almost no effect))	0 (Herbicidal ratio of 5% or lower (almost no effect))	0 (Herbicidal ratio of 5% or lower (almost no effect))	0 (Herbicidal ratio of 5% or lower (almost no effect))	0 (Herbicidal ratio of 5% or lower (almost no effect))	0 (Herbicidal ratio of 5% or lower (almost no effect))	0 (Herbicidal ratio of 5% or lower (almost no effect))				0 (Herbicidal ratio of 5% or lower (almost no effect))				0 (Herbicidal ratio of 5% or lower (almost no effect))	d (soybean) effect on crop grade [8, 16]: 0 (Herbicidal ratio of 5% or lower (almost no effect)); c (corn) effect on crop grade [9, 16]: 0 (Herbicidal ratio of 5% or lower (almost no effect)); Q (Galium spurium) herbicidal effect grade [10, 16]: 0 (Herbicidal ratio of 5% or lower (almost no effect)); e (wheat) effect on crop grade [12, 16]: 0 (Herbicidal ratio of 5% or lower (almost no effect)); L (Apera spica-venti) herbicidal effect grade [13, 16]: 0 (Herbicidal ratio of 5% or lower (almost no effect))
CON=C(C)CC1CC(OC(=O)C(C)(C)c2ccc(Cl)cc2)=C(c2c(C)cc(C)cc2C)C1=O (stereo not drawn) [1-148]					4 (Herbicidal ratio of 70% or higher and lower than 90%)	5 (Herbicidal ratio of 90% or more (almost completely withered))										H: Echinochloa crus-galli var. crus-galli, herbicidal effect (criteria 0-5) [1]: 5 (Herbicidal ratio of 90% or more (almost completely withered)); L: Apera spica-venti, herbicidal effect (criteria 0-5) [2]: 5 (Herbicidal ratio of 90% or more (almost completely withered)); I: Avena fatua, herbicidal effect (criteria 0-5) [3]: 5 (Herbicidal ratio of 90% or more (almost completely withered)); N: Amaranthus retroflexus, herbicidal effect (criteria 0-5) [4]: 2 (Herbicidal ratio of 20% or higher and lower than 40%); K: Lolium multiflorum Lam., herbicidal effect (criteria 0-5) [7]: 5 (Herbicidal ratio of 90% or more (almost completely withered)); d: soybean, effect grade on crop ([8]; 320 g/ha): 0 (Herbicidal ratio of 5% or lower (almost no effect)); P: Stellaria media, herbicidal effect grade ([14]; 320 g/ha): 0 (Herbicidal ratio of 5% or lower (almost no effect)); c: corn, effect grade on crop ([9]; 320 g/ha): 3 (Herbicidal ratio of 40% or higher and lower than 70%); Q: Galium spurium, herbicidal effect grade ([10]; 320 g/ha): 0 (Herbicidal ratio of 5% or lower (almost no effect)); f: beet, effect on crop (criteria 0-5) [11]: 3 (Herbicidal ratio of 40% or higher and lower than 70%); e: wheat, effect grade on crop ([12]; 320 g/ha): 0 (Herbicidal ratio of 5% or lower (almost no effect)); g: rapeseed, effect on crop (criteria 0-5) [15]: 5 (Herbicidal ratio of 90% or more (almost completely withered)); L: Apera spica-venti, herbicidal effect grade ([13]; 320 g/ha): 5 (Herbicidal ratio of 90% or more (almost completely withered))
CCC(=O)CCC1CC(O)=C(c2c(C)cc(C)cc2C)C1=O (stereo not drawn) [5-001]	3 (Herbicidal ratio of 40% or higher and lower than 70%)	4 (Herbicidal ratio of 70% or higher and lower than 90%)	4 (Herbicidal ratio of 70% or higher and lower than 90%)	0 (Herbicidal ratio of 5% or lower (almost no effect))	0 (Herbicidal ratio of 5% or lower (almost no effect))	2 (Herbicidal ratio of 20% or higher and lower than 40%)	5 (Herbicidal ratio of 90% or more (almost completely withered))	0 (Herbicidal ratio of 5% or lower (almost no effect))	0 (Herbicidal ratio of 5% or lower (almost no effect))	0 (Herbicidal ratio of 5% or lower (almost no effect))		0 (Herbicidal ratio of 5% or lower (almost no effect))	5 (Herbicidal ratio of 90% or more (almost completely withered))		0 (Herbicidal ratio of 5% or lower (almost no effect))	
CCc1cc(C)cc(C)c1C1=C(O)CC(CC(C)=NOC)C1=O (stereo not drawn) [6-007]	5 (Herbicidal ratio of 90% or more (almost completely withered))	4 (Herbicidal ratio of 70% or higher and lower than 90%)	3 (Herbicidal ratio of 40% or higher and lower than 70%)	0 (Herbicidal ratio of 5% or lower (almost no effect))	3 (Herbicidal ratio of 40% or higher and lower than 70%)	5 (Herbicidal ratio of 90% or more (almost completely withered))	5 (Herbicidal ratio of 90% or more (almost completely withered))	0 (Herbicidal ratio of 5% or lower (almost no effect))	5 (Herbicidal ratio of 90% or more (almost completely withered))	0 (Herbicidal ratio of 5% or lower (almost no effect))	0 (Herbicidal ratio of 5% or lower (almost no effect))	5 (Herbicidal ratio of 90% or more (almost completely withered))	5 (Herbicidal ratio of 90% or more (almost completely withered))	0 (Herbicidal ratio of 5% or lower (almost no effect))		
